One test deals with MDA-MB-468 cells. As to the kind of experiment: Cellular proliferation/cytotoxicity assay (Alamar Blue), MDA-MB-468. The conditions noted are these: Homo sapiens, MDA-MB-468, 48 h, read-out: Anti-proliferative/cytotoxic activity: IC50 MDA468.
The next test has as its system MCF7 cells. Description: Cellular proliferation/cytotoxicity assay (Alamar Blue), MCF7. To be noted: Homo sapiens, MCF7, 48 h, read-out: Anti-proliferative/cytotoxic activity: IC50 MCF7.
Another test deals with T1, GST-ΔPH-Akt1 (Homo sapiens, UniProt P31749).
T1 construct: named GST-deltaPH-Akt1; 107-480aa; cloned in the pAcGl vector; GST (N); made in house; host or cells: SF9 insect cells (baculovirus vector pAcG1), co-expressed with PDK1
T1 sequence (P31749 107-480, stated change not applied): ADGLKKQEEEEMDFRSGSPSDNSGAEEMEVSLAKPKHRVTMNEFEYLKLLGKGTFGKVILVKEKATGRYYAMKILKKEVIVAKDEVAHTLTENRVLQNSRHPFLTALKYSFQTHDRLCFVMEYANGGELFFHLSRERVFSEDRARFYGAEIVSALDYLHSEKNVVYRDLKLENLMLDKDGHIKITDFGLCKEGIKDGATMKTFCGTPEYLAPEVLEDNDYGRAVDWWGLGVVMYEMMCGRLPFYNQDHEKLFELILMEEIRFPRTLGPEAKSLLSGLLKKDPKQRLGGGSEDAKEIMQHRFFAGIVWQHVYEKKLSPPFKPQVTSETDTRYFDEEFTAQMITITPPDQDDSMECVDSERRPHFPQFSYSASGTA
Description: Biochemical ΔPH Akt1 assay (flashplate, 33P incorporation into histone 2B). To be noted: 100 nM ATP, histone 2B substrate; read-out: ΔPHAkt1 inhibition: IC50. The source says: For the biochemical assay ΔPHAkt1 is used devoid of its PH domain as a GST fusion protein (named GST-deltaPH-Akt1; 107-480aa; cloned in the pAcGl vector (BD Biosciences Pharmingen)), co-expressed with PDK1 in SF9 insect cells. The protein is purified using glutathion-affinity chromatography by standard protocols.
In order to study the inhibition of Akt according to the invention, a flashplate-based assay has been developed.
The Akt1 assay is a biochemical assay using Akt1 devoid of its PH domain and co-expressed with PDK1 in insect cells. The GST-ΔPH-Akt1 assay is run in 96 well plates by incubating 100 ng/well GST-ΔPH-Akt1, 100 ng/well histone 2B (Roche, #223514) as substrate, 10 μl of compound of invention (test compounds were dissolved as 10 mM solutions in dimethylsulfoxide (DMSO) and subsequently diluted) and 100 nM ATP (including ^33P-ATP) in 100 μl of reaction buffer ([…], pH7,5; 3 mM MgCl2; 3 mM MnCl2; 3 μM Na-Orthovanadat; 1 mM DTT; 1 μg/ml PEG8000) for 80 minutes at 30° C. The reactions are terminated by adding 100 μl stopping buffer (2% H3PO4 for 5 minutes) and are washed 3 times by using washing buffer (0.9% NaCl). Relying on the incorporation of ^33P into the protein substrate histone 2B, the detection is based on the adhesion of the phosphorylated protein to the surface of scintillator-coated flash plates (NEN, USA; #SMP-200). This phosphorylation is measured by counting the plate for 60 sec. using a plate reader (Wallac Microbeta; Perkin Elmer, USA).

As for `CN1CCN(Cc2ccc(C(=O)Nc3ccc(Nc4nc(-c5cccc(Br)c5)cc5ccnn45)cc3)cc2)CC1` [Example 2, N-{4-[5-(3-Bromo-phenyl)-pyrazolo[1,5-c]pyrimidin-7-ylamino]-phenyl}-4-(4-methyl-piperazin-1-ylmethyl)-benzamide], the IC50 in the test with MDA-MB-468 cells was at most 13600 nM; in the test on MCF7 cells it was at most 16900 nM.

Regarding `Nc1ccc(C(=O)Nc2ccc(Nc3nc(-c4cccc5c4oc4ccccc45)cc4ccnn34)cc2)cc1` [Example 6, 4-Amino-N-[4-(5-dibenzofuran-4-yl-pyrazolo[1,5-c]pyrimidin-7-ylamino)-phenyl]-benzamide], the IC50 on GST-ΔPH-Akt1 is at most 1750 nM.

For the molecule `CC(C)(C)c1ccc(C(=O)Nc2ccc(Nc3nc(-c4cccc5c4oc4ccccc45)cc4ccnn34)cc2)cc1` [Example 10, 4-tert-Butyl-N-[4-(5-dibenzofuran-4-yl-pyrazolo[1,5-c]pyrimidin-7-ylamino)-phenyl]-benzamide], the IC50 on GST-ΔPH-Akt1 was at most 2450 nM.

For the molecule `O=C(Cc1cccc(Cl)c1)Nc1ccc(Nc2nc(-c3cccc4c3oc3ccccc34)cc3ccnn23)cc1` [Example 12, 2-(3-Chloro-phenyl)-N-[4-(5-dibenzofuran-4-yl-pyrazolo[1,5-c]pyrimidin-7-ylamino) -phenyl]-acetamide], on GST-ΔPH-Akt1, the IC50 is at most 2450 nM.

As to `NCc1ccc(C(=O)Nc2cccc(Nc3nc(-c4cccc5c4oc4ccccc45)cc4ccnn34)c2)cc1` [Example 17, 4-Aminomethyl-N-[3-(5-dibenzofuran-4-yl-pyrazolo[1,5-c]pyrimidin-7-ylamino)-phenyl]-benzamide], the values for the IC50 in the test with MDA-MB-468 cells, on GST-ΔPH-Akt1 and in the test on MCF7 cells were at most 13600 nM, at most 1750 nM and at most 16900 nM, respectively.

Turning to `NCc1cccc(C(=O)Nc2cccc(Nc3nc(-c4cccc5c4oc4ccccc45)cc4ccnn34)c2)c1` [Example 18, 3-Aminomethyl-N-[3-(5-dibenzofuran-4-yl-pyrazolo[1,5-c]pyrimidin-7-ylamino)-phenyl]-benzamide], the IC50 was at most 13600 nM in the test on MDA-MB-468 cells, at most 1750 nM at GST-ΔPH-Akt1 and at most 16900 nM in the test on MCF7 cells.

Regarding `NCc1ccc(C(=O)Nc2ccc(Nc3nc(-c4cccc5c4oc4ccccc45)cc4ccnn34)cc2)cc1` [Example 19, 4-Aminomethyl-N-[4-(5-dibenzofuran-4-yl-pyrazolo[1,5-c]pyrimidin-7-ylamino)-phenyl]-benzamide], the IC50 with MDA-MB-468 cells is at most 13600 nM; on GST-ΔPH-Akt1, at most 1750 nM; in the test with MCF7 cells, at most 16900 nM.

Take `NCCc1ccc(C(=O)Nc2cccc(Nc3nc(-c4cccc5c4oc4ccccc45)cc4ccnn34)c2)cc1` [Example 21, 4-(2-Amino-ethyl)-N-[3-(5-dibenzofuran-4-yl-pyrazolo[1,5-c]pyrimidin-7-ylamino)-phenyl]-benzamide]: the IC50 at GST-ΔPH-Akt1 was at most 1750 nM.

As for `NCCCC(=O)Nc1cccc(Nc2nc(-c3cccc4c3oc3ccccc34)cc3ccnn23)c1` [Example 22, 4-Amino-N-[3-(5-dibenzofuran-4-yl-pyrazolo[1,5-c]pyrimidin-7-ylamino)-phenyl]-butyramide], the IC50 at GST-ΔPH-Akt1 was at most 1750 nM.

On to `NCc1ccc(C(=O)Nc2ccc(Nc3nc(-c4ccc5cc(O)ccc5c4)cc4ccnn34)cc2)cc1` [Example 44, 4-Aminomethyl-N-{4-[5-(6-hydroxy-naphthalen-2-yl)-pyrazolo[1,5-c]pyrimidin-7-ylamino]-phenyl}-benzamide], for which the IC50 on GST-ΔPH-Akt1 was at most 1750 nM.

Consider `NCc1ccc(C(=O)Nc2ccc(Nc3nc(-c4cccc(-c5ccccc5)c4)cc4ccnn34)cc2)cc1` [Example 71, 4-Aminomethyl-N-[4-(5-biphenyl-3-yl-pyrazolo[1,5-c]pyrimidin-7-ylamino)-phenyl]-benzamide], for which the IC50 at GST-ΔPH-Akt1 was at most 2450 nM.

For `COc1ccc(-c2cccc(-c3cc4ccnn4c(Nc4ccc(NC(=O)c5ccc(CN)cc5)cc4)n3)c2)cc1` [Example 72, 4-Aminomethyl-N-{4-[5-(4′-methoxy-biphenyl-3-yl)-pyrazolo[1,5-c]pyrimidin-7-ylamino]-phenyl}-benzamide], the IC50 at GST-ΔPH-Akt1 is at most 1750 nM.

As for `CC(=O)Nc1cccc(-c2cccc(-c3cc4ccnn4c(Nc4ccc(NC(=O)c5ccc(CN)cc5)cc4)n3)c2)c1` [Example 73, N-{4-[5-(3′-Acetylamino-biphenyl-3-yl)-pyrazolo[1,5-c]pyrimidin-7-ylamino]-phenyl}-4-aminomethyl-benzamide], the IC50 on GST-ΔPH-Akt1 is at most 2450 nM.

As for `COc1cccc(-c2cccc(-c3cc4ccnn4c(Nc4ccc(NC(=O)c5ccc(CN)cc5)cc4)n3)c2)c1` [Example 74, 4-Aminomethyl-N-{4-[5-(3′-methoxy-biphenyl-3-yl)-pyrazolo[1,5-c]pyrimidin-7-ylamino]-phenyl}-benzamide], the IC50 on GST-ΔPH-Akt1 is at most 2450 nM.

Take `NCCc1ccc(C(=O)Nc2ccc(Nc3nc(-c4ccc(-c5ccc(F)cc5)cc4)cc4ccnn34)cc2)cc1` [Example 75, 4-(2-Amino-ethyl)-N-{4-[5-(4′-fluoro-biphenyl-4-yl)-pyrazolo[1,5-c]pyrimidin-7-ylamino]-phenyl}-benzamide]: the IC50 on GST-ΔPH-Akt1 is at most 1750 nM.

Consider `O=C(Nc1ccc(Nc2nc(-c3ccc(-c4ccc(F)cc4)cc3)cc3ccnn23)cc1)c1ccc2c(c1)CCNC2` [Example 76, 1,2,3,4-Tetrahydro-isoquinoline-6-carboxylic acid {4-[5-(4′-fluoro-biphenyl-4-yl)-pyrazolo[1,5-c]pyrimidin-7-ylamino]-phenyl}amide], for which the IC50 at GST-ΔPH-Akt1 is at most 1750 nM.

Consider `COc1cccc(-c2ccc(-c3cc4ccnn4c(Nc4ccc(NC(=O)c5ccc6c(c5)CCNC6)cc4)n3)cc2)c1` [Example 77, 1,2,3,4-Tetrahydro-isoquinoline-6-carboxylic acid {4-[5-(3′-methoxy-biphenyl-4-yl)-pyrazolo[1,5-c]pyrimidin-7-ylamino]-phenyl}amide], for which, on GST-ΔPH-Akt1, the IC50 was at most 1750 nM.

As to `CC(=O)Nc1cccc(-c2ccc(-c3cc4ccnn4c(Nc4ccc(NC(=O)c5ccc(CCN)cc5)cc4)n3)cc2)c1` [Example 82, N-{4-[5-(3′-Acetylamino-biphenyl-4-yl)-pyrazolo[1,5-c]pyrimidin-7-ylamino]-phenyl}-4-(2-amino-ethyl)-benzamide], the IC50 at GST-ΔPH-Akt1 is at most 1750 nM.

With `CC(=O)Nc1cccc(-c2ccc(-c3cc4ccnn4c(Nc4ccc(NC(=O)c5ccc6c(c5)CCNC6)cc4)n3)cc2)c1` [Example 83, 1,2,3,4-Tetrahydro-isoquinoline-6-carboxylic acid {4-[5-(3′-acetylamino-biphenyl-4-yl)-pyrazolo[1,5-c]pyrimidin-7-ylamino]-phenyl}-amide], the IC50 in the test with MDA-MB-468 cells was at most 13600 nM; in the test with MCF7 cells it was at most 16900 nM.

For the molecule `NCCc1ccc(C(=O)Nc2ccc(Nc3nc(-c4ccc(Br)cc4)cc4ccnn34)cc2)cc1` [Example 84, 4-(2-Amino-ethyl)-N-{4-[5-(4-bromo-phenyl)-pyrazolo[1,5-c]pyrimidin-7-ylamino]-phenyl}-benzamide], at GST-ΔPH-Akt1, the IC50 is at most 1750 nM.

`COc1cccc(-c2ccc(-c3cc4c(Br)cnn4c(Nc4ccc(NC(=O)c5ccc(CCN)cc5)cc4)n3)cc2)c1` [Example 86, 4-(2-Amino-ethyl)-N-{4-[3-bromo-5-(3′-methoxy-biphenyl-4-yl)-pyrazolo[1,5-]pyrimidin-7-ylamino]-phenyl}-benzamide]: the IC50 on GST-ΔPH-Akt1 is at most 1750 nM.

Take `COc1ccc(-c2ccc(-c3cc4c(Br)cnn4c(Nc4ccc(NC(=O)c5ccc(CN)cc5)cc4)n3)cc2)cc1` [Example 88, 4-Aminomethyl-N-{4-[3-bromo-5-(4′-methoxy-biphenyl-4-yl)-pyrazolo[1,5-c]pyrimidin-7-ylamino]-phenyl}-benzamide]: the IC50 at GST-ΔPH-Akt1 is at most 1750 nM.

On to `NCc1ccc(C(=O)Nc2ccc(Nc3nc(-c4ccc(-c5ccc(F)cc5)cc4)cc4c(Br)cnn34)cc2)cc1` [Example 89, 4-Aminomethyl-N-{4-[3-bromo-5-(4′-fluoro-biphenyl-4-yl)-pyrazolo[1,5-c]pyrimidin-7-ylamino]-phenyl}-benzamide], for which the IC50 on GST-ΔPH-Akt1 is at most 1750 nM.

With `CC(=O)Nc1cccc(-c2ccc(-c3cc4c(Br)cnn4c(Nc4ccc(NC(=O)c5ccc(CN)cc5)cc4)n3)cc2)c1` [Example 90, N-{4-[5-(3′-Acetylamino-biphenyl-4-yl)-3-bromo-pyrazolo[1,5-c]pyrimidin-7-ylamino]-phenyl}-4-aminomethyl-benzamide], at GST-ΔPH-Akt1, the IC50 was at most 1750 nM.

As for `NCc1ccc(C(=O)Nc2ccc(Nc3nc(-c4cccc5c4oc4ccccc45)cc4c(Br)cnn34)cc2)cc1` [Example 91, 4-Aminomethyl-N-[4-(3-bromo-5-dibenzofuran-4-yl-pyrazolo[1,5-c]pyrimidin-7-ylamino) -phenyl]-benzamide], the IC50 at GST-ΔPH-Akt1 is at most 1750 nM.

(Values after patent publication US7745446B2, “Pyrazolo[1,5-c]pyrimidines” (Bayer Schering Pharma Aktiengesellschaft, priority 2004, dated 2010).)
